US5955508A, “Method for the enhancement of lymphocyte activity against opportunistic microbial pathogens” (priority 1996, dated 1999)

Experiments:
TNF-α in CD8+ T cells = test: TNF-α production by CD8+ T cells, flow cytometry; assay type: cell-based, human; conditions: 50 ng/ml; for % Positive Cells (TNF-α immunopositive), d-FEN / TNF-α Titer, d-FEN: Mean ± SEM
Source text: (§1) The T lymphocytes analyzed were obtained from 20 HIV+ patients (9 females and 11 males, 25-48 years of age). The patients were diagnosed as being HIV+ within the past 0.5-9 years, and 15 are being treated with antiviral drugs. The subjects' study identification number (indicates the order in which bloods were drawn), CD4+ and CD8+ counts (determined March, 1996, as part of the present study), age, sex, date of diagnosis, and pharmacotherapy are provided in Table 1.
(§2) The experimental protocol for this project is illustrated in Table A. Note that the cultures were exposed to two doses (5 and 50 ng/ml) of d-FEN in the mitogenesis assays, whereas only one dose (50 ng/ml) was used in the antifungal and cytokine release assays.
(§3) Cytokine Profiles. Peripheral mononuclear cells were isolated by the Ficoll-Hypaque method and washed twice with RPMI-1640 medium. Cell suspensions were made at 1×10^6 /ml and the cells activated with interleukin-2 (IL-2) for 18 h or 4 days at 37° C. under 5% CO^2 +95% air. Monensin (1 nM) then was added to the culture to block secretion of cytokines, and the cultures allowed to continue for another 3 h. The cells were washed twice with PBS+1% fetal calf serum (FCS) with 0.1% saponin+0.1% sodium azide, then washed once with PBS-1% FCS and stained with anti-cytokine MAb-FL conjugate for 30 min. Following two washes, the cells were analyzed by flow cytometry for production of IL-2, IFN-γ and TNF-α. The MAbs-FL conjugates were obtained from Pharmingen (San Diego, Calif.). Potential effects of on cytokine production were evaluated (a) as increases in the percentage of a T cell subset which produce the respective cytokine; and, (b) as increases in the amount of cytokine produced by each subset. The latter were analyzed as a shift of the cytokine histograms.
(§4) The data were analyzed by a one- or two-way analysis of variance (ANOVA) with repeated measures where appropriate ([…] version 1; Jandel, San Rafael, Calif.). Significant main effects were subjected to post hoc analysis using the Student-Newman Keuls All Pairwise Multiple Comparisons test or the Mann-Whitney U test.

K562 human tumor cells = test: Incidence and metastasis of human K562 tumors in SCID mice reconstituted with human PBMC; assay type: in vivo
Method: The purpose of the present experiments was to determine whether d-FEN can enhance the ability of the human immune system to kill a human tumor cell line, vis. K562 human chronic myelogenous leukemia cells. Toward this end d-FEN and vehicle (VEH) treated young male severe combined immunodeficient (SCID) beige mice, reconstituted 4 days previously with human peripheral blood mononuclear cells (PBMC) obtained from two human volunteers, were injected with K562 cells and tumor size and number measured 13-18 days later.
SCID mice (n=36) were obtained from Harlan Sprague-Dawley Inc. (Indianapolis, Ind.). This inbred strain of mice are devoid of T, B, and natural killer (NK) cells. The animals were housed 3/cage in an AAALAC approved facility with a 12 h light-dark cycle (lights on at 07:00 h). The temperature and humidity of the facility were maintained between 72-75° F. and 52-55% respectively. Food (Purina mouse chow) and water were available ad libitum.
Protocol. The animals were divided into groups of 6 and subjected to the following treatment for each of the 2 human donors tested:
The mice treated with d-FEN (10 mg/kg/day, p.o.) received the drug daily in their drinking water beginning 10 days prior to inoculation with human PBMC. On the day of PBMC injection (3×10^7 human PBMC/mouse, i.p.) the dose of d-FEN was reduced to […]. The average daily water intakes and body weights of the mice were 6 ml and 20 g, respectively. Therefore, a dose of 6 mg/kg equaled 2 mg of d-FEN per 100 ml of water. Four days after reconstitution with human PBMC, 1×10^7 K562 human tumor cells/mouse were injected i.p. The animals were sacrificed between 11:00 and 13:00 h 13-18 days after K562 cell injection (17-22 and 27-32 days, respectively, after transfection with human PBMC and the start of d-FEN treatment). The animals were thoroughly necropsied and tumor sites counted, excised, weighed and fixed for histological analysis.
For reconstitution of SCID mice with human PBMC, 500 ml of venous blood was drawn into sterile plastic pouches containing preservative free heparin. Blood was drawn by Apheresis Lab nurses at LUMC (Loyola University Medical Center) and was diluted with an equal volume of HBSS. The diluted blood (20 ml) was layered over 10 ml of Histopaque 1077 (Sigma Chemical Company, St. Louis, Mo.) and centrifuged at 1000×g for 30 min. After centrifugation, the mononuclear cell layer was recovered from the interface and washed twice in HBSS. After microscopic enumeration, the PBMC were resuspended in HBSS at a concentration of 1×10^8 cells/ml, and 0.3 ml (3×10^7 cells) of the cell suspension was injected (i.p.) into each SCID mouse.
The K562 cell line originated from a chronic myelogenous leukemia patient and was obtained from Dr. T. Ellis (Director, Cellular Immunology Laboratory, LUMC). The K562 cells used for assessment of cytotoxic activity were maintained in long term cultures using Corning 25 cm^2 tissue culture flasks (Corning Glass Works, Corning, N.Y.) containing RPMI 1640 (Gibco Laboratories, Grand Island, N.Y.) supplemented with low LPS 10% fetal bovine serum (FBS; Gibco), 100 units/ml penicillin, 100 μg/ml streptomycin (Whittaker M. A. Bioproducts, Walkersville, Md.), 0.1 mM non-essential amino acids, and 2 mM L-glutamine (Gibco). This medium was used throughout, except where noted, and is referred to as "culture medium". The K562 cells were grown in suspension and were passaged three times per week by transfer of 10^6 K562 cells into a flask containing 10 ml of fresh culture medium. The K562 cells injected into the SCID mice were supplemented with fresh medium at a 1:3 dilution the day before administration. They were washed once in medium, pelleted by centrifugation at 500 ×g for 10 min., then resuspended at a concentration of 5×10^7. Subsequently, 0.2 ml (1×10^7 cells) of the cell suspension was injected (i.p.) into each SCID mouse. The K562 cells were administered to the animals four days after the injection of PBMC.

[1] = cited from earlier work
[2] = test system: IL-2 in CD4+ (CD8-) T cells; test: IL-2 production by CD4+ (CD8-) T cells, flow cytometry; assay type: cell-based, human; conditions: for % Positive Cells (IL-2 immunopositive), d-FEN / IL-2 Titer, d-FEN: CD4+ (CD8-) T cells, Mean ± SEM
Source text: as §1, §2, §3, §4

[3] = K562 + PBMC + d-FEN (10 then 6 mg/kg/day p.o.)
[4] = K562 + PBMC + d-FEN (10 then 6 mg/kg/day p.o.), p = 0.05

CCN[C@@H](C)Cc1cccc(C(F)(F)F)c1 [d-FEN]
effect on TNF-α titer in words (TNF-α in CD8+ T cells): No significant effects on TNF-α titer were observed
% Positive Cells (TNF-α immunopositive), d-FEN (TNF-α in CD8+ T cells; AIDS): 62 ± 4%
TNF-α Titer, d-FEN (TNF-α in CD8+ T cells; AIDS): 329 ± 57 geometric mean channel fluorescence
% Positive Cells (TNF-α immunopositive), d-FEN (TNF-α in CD8+ T cells; non-AIDS HIV+): 69 ± 3%
TNF-α Titer, d-FEN (TNF-α in CD8+ T cells; non-AIDS HIV+): 392 ± 47 geometric mean channel fluorescence
activation at 0.05 µg/mL (TNF-α in CD8+ T cells; Homo sapiens, T-cell, AIDS, read-out: percent increase of TNF-α+ cells over VEH): 24%
Number of Mice Showing Multiple Tumor Sites (K562 human tumor cells; [3]): 1/12
Percent of Mice Showing Multiple Tumor Sites / tumor metastasis (K562 human tumor cells; [3]): 8%
Number of Mice Having Tumors (K562 human tumor cells; [4]): 5/12
Percent of Mice Having Tumors (K562 human tumor cells; [4]): 42%
Body Weight (K562 human tumor cells; K562 + PBMC + d-FEN (10 then 6 mg/kg/day p.o., drinking water)): 17.5 ± 2.1 g
incidence of histopathologically confirmed lymphomas in words (K562 human tumor cells; d-FEN treated SCID mice, p=0.05): significantly (p=0.05) reduced incidence
body weights and water intakes in words (K562 human tumor cells; d-FEN treated vs control SCID mice): did not differ from those of the control animals
tumor metastasis in words (K562 human tumor cells; d-FEN treated vs other two groups, p=0.6): did not reach significance
anorexigenic action and weight loss (K562 human tumor cells; doses used during the studies): No effect of this type was observed
largest tumor (K562 human tumor cells; one of the d-FEN treated mice, with metastasis): 0.833 g
level in tissue and in plasma ([1]; 5 mg dextrofenfluramine per os): about 5 ng/ml
conversion to metabolite dextronorfenfluramine ([1]; upon administration, in vivo): partially converts upon administration to its metabolite dextronorfenfluramine
% Positive Cells (IL-2 immunopositive), d-FEN ([2]; 50 ng/ml, AIDS): 9 ± 4%
IL-2 Titer, d-FEN ([2]; 50 ng/ml, AIDS): 213 ± 33 geometric mean channel fluorescence
% Positive Cells (IL-2 immunopositive), d-FEN ([2]; 50 ng/ml, non-AIDS HIV+): 32 ± 3%
IL-2 Titer, d-FEN ([2]; 50 ng/ml, non-AIDS HIV+): 308 ± 27 geometric mean channel fluorescence
effect on IL-2 levels in words ([2]; 50 ng/ml, CD4+ T cells, non-AIDS): not in the non-AIDS patients' CD4+ T cells
activation at 0.05 µg/mL ([2]; Homo sapiens, T-cell, read-out: percent increase of IL-2 titer over VEH): 55%
